According to ChEMBL document CHEMBL1909046, “DrugMatrix in vitro pharmacology data”:

Assays:
[1] = molecular target: T1, Type-2 angiotensin II receptor (Homo sapiens, UniProt P50052); format: cell-based; details: cho-k1; also: in other assays of this panel Not Active means under 50% inhibition at 10 µM
T1 sequence (P50052 whole entry): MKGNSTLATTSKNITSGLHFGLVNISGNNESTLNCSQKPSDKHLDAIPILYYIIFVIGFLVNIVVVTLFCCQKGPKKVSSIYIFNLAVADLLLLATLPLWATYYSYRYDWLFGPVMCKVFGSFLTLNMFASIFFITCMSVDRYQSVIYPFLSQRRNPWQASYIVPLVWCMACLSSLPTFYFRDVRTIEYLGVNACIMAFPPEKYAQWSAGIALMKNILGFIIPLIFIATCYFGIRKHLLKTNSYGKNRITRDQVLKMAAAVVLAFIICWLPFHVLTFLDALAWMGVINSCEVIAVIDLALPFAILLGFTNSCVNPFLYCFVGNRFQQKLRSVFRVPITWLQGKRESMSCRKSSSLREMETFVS

[2] = molecular target: Beta-3 adrenergic receptor (Homo sapiens, UniProt P13945); experiment: DRUGMATRIX: Adrenergic beta3 radioligand binding (ligand: [125I] Cyanopindolol); format: cell membranes, HEK293, Membrane; details: Not Active = under 50% inhibition at 10 µM
[3] = molecular target: Cytochrome P450 2D6 (Homo sapiens, UniProt P10635); details: bti-tn-5b1-4; also: in other assays of this panel Not Active means under 50% inhibition at 10 µM
[4] = molecular target: Prostaglandin G/H synthase 1 (Homo sapiens, UniProt P23219); experiment: biochemical; format: tissue-based, Platelet;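 also: inhibition of COX-1 enzyme activity, with arachidonic acid supplied as substrate; in other assays of this panel Not Active means under 50% inhibition at 10 µM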
[5] = molecular target: T2, Interstitial collagenase (Homo sapiens, UniProt P03956); experiment: biochemical; format: tissue-based, Rheumatoid synovial fibroblasts;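 also: MMP-1 enzyme inhibition assay using a peptide substrate; in other assays of this panel Not Active means under 50% inhibition at 10 µM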
T2 sequence (P03956 whole entry): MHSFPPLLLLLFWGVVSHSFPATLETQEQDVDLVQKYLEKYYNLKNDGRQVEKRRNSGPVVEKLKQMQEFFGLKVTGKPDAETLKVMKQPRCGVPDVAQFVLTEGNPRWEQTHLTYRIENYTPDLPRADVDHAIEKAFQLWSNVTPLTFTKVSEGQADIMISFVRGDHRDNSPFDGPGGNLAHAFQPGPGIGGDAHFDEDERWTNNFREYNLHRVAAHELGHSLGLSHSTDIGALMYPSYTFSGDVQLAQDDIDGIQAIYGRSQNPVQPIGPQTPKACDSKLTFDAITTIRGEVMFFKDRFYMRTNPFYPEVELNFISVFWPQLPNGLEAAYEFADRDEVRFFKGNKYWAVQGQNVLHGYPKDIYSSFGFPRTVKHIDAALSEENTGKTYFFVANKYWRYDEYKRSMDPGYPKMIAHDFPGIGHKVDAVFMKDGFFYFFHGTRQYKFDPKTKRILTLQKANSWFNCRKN

[6] = molecular target: Cytochrome P450 3A4 (Homo sapiens, UniProt P08684); details: bti-tn-5b1-4; also: in other assays of this panel Not Active means under 50% inhibition at 10 µM
[7] = molecular target: T3, Cytochrome P450 1A2 (Homo sapiens, UniProt P05177); details: bti-tn-5b1-4; also: in other assays of this panel Not Active means under 50% inhibition at 10 µM
T3 sequence (P05177 whole entry): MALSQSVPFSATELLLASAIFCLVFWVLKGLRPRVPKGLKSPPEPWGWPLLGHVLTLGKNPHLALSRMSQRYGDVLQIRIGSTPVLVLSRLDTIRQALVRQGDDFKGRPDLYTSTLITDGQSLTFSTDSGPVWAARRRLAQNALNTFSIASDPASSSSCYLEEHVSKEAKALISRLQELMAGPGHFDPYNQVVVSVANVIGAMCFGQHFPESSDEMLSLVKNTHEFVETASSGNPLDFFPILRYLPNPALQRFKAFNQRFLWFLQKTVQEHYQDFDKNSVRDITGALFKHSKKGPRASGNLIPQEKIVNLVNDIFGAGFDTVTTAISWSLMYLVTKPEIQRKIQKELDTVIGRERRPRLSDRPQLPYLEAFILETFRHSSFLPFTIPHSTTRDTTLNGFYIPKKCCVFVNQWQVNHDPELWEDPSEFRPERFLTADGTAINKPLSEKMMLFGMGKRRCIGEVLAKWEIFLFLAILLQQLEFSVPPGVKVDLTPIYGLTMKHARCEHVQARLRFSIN

[8] = DRUGMATRIX: Phosphodiesterase PDE4 enzyme inhibition (substrate: [3H]cAMP + cAMP); details: u-937, Not Active = under 50% inhibition at 10 µM

Sequence of Prostaglandin G/H synthase 1 (P23219 whole entry): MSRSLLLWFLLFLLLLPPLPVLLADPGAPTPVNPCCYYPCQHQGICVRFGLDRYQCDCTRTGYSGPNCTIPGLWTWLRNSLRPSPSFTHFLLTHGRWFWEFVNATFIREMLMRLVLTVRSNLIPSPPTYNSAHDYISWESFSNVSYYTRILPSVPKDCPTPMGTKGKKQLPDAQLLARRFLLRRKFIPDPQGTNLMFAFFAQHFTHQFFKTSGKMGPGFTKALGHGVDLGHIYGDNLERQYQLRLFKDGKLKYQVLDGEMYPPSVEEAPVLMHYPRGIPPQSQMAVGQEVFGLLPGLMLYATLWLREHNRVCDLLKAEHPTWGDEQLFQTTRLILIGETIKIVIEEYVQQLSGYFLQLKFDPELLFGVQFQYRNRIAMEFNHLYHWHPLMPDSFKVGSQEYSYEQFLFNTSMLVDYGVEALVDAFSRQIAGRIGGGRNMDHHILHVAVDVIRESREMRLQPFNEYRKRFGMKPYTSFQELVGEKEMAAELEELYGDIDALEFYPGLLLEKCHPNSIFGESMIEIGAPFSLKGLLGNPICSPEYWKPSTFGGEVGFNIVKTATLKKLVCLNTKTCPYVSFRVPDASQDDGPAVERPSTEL
Sequence of Beta-3 adrenergic receptor (P13945 whole entry): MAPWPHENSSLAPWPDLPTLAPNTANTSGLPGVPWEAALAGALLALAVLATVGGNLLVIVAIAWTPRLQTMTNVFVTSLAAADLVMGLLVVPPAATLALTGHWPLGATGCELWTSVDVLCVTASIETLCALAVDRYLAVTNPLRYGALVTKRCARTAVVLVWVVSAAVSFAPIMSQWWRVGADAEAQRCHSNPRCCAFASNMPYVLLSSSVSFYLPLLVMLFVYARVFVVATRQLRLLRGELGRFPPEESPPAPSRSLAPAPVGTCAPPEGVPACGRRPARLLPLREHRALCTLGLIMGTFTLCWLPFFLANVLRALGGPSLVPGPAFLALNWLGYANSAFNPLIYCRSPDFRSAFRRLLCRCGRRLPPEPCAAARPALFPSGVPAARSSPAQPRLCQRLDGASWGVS
Sequence of Cytochrome P450 2D6 (P10635 whole entry): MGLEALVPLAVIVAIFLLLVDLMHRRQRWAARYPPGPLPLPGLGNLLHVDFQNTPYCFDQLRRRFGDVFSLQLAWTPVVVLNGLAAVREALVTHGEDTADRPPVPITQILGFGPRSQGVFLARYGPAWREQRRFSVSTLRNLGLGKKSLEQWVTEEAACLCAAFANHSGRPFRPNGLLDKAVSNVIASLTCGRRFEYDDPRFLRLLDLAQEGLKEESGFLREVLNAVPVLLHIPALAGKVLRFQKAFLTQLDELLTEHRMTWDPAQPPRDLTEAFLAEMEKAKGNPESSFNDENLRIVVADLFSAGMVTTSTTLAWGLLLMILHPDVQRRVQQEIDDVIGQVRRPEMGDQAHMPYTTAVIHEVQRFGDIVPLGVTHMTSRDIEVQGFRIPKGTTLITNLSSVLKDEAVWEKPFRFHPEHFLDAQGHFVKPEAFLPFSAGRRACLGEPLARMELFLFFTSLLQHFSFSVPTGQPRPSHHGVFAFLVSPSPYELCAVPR
Sequence of Cytochrome P450 3A4 (P08684 whole entry): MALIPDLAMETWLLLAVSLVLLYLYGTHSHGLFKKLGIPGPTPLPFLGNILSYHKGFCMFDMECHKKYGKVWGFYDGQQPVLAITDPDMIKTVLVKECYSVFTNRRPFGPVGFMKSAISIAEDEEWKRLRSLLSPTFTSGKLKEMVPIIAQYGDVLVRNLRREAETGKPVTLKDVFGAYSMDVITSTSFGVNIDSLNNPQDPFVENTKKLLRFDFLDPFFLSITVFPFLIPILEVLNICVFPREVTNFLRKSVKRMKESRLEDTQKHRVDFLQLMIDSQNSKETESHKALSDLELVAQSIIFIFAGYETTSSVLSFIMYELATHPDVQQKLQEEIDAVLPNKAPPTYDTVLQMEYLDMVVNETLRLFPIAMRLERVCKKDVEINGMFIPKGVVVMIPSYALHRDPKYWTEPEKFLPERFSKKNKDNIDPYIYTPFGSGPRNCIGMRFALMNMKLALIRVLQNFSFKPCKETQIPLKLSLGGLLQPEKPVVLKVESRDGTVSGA

Structure (SMILES)	IC50 [1]	IC50 ([2]; hek293)	IC50 [3]	Ki [3]	IC50 ([4]; platelet)	IC50 [5]	IC50 [6]	Ki [6]	IC50 [7]	Ki [7]	IC50 [8]	Ki [8]	IC50 ([8]; read-out: IC50) [µM]	IC50 ([2]; read-out: IC50) [µM]	Ki ([2]; read-out: Ki) [µM]	IC50 ([4]; read-out: IC50) [µM]
N[C@@H](Cc1ccc(N(CCCl)CCCl)cc1)C(=O)O	Not Active	Not Active	Not Active	Not Active	Not Active	Not Active	Not Active	Not Active	Not Active	Not Active	Not Active	Not Active				
CC(C)N1CCN(c2ccc(OCC3COC(Cn4cncn4)(c4ccc(Cl)cc4Cl)O3)cc2)CC1 (stereo unspecified) [TERCONAZOLE]	Not Active		Not Active	Not Active	Not Active	Not Active	Not Active	Not Active	Not Active	Not Active	Not Active	Not Active				
Cc1nc2n(c(=O)c1CCN1CCC(c3noc4cc(F)ccc34)CC1)CCCC2 [RISPERIDONE]	Not Active	Not Active			Not Active	Not Active			Not Active	Not Active						
N[C@@H]1[C@H]2CN(c3nc4c(cc3F)c(=O)c(C(=O)O)cn4-c3ccc(F)cc3F)C[C@@H]12 [TROVAFLOXACIN]	Not Active	Not Active	Not Active	Not Active	Not Active	Not Active	Not Active	Not Active	Not Active	Not Active	Not Active	Not Active				
O=c1ncn2nc(Sc3ccc(F)cc3F)ccc2c1-c1c(Cl)cccc1Cl [NEFLAMAPIMOD]	Not Active	Not Active	Not Active	Not Active	Not Active	Not Active	Not Active	Not Active	Not Active	Not Active	Not Active	Not Active				
CCCCc1oc2ccccc2c1C(=O)c1cc(I)c(OCCN(CC)CC)c(I)c1 [AMIODARONE]	Not Active				Not Active	Not Active										
CC[C@]1(O)C[C@H]2CN(CCc3c([nH]c4ccccc34)[C@@](C(=O)OC)(c3cc4c(cc3OC)N(C=O)[C@H]3[C@@](O)(C(=O)OC)[C@H](OC(C)=O)[C@]5(CC)C=CCN6CC[C@]43[C@@H]65)C2)C1 [VINCRISTINE]	Not Active	Not Active	Not Active	Not Active	Not Active	Not Active	Not Active	Not Active	Not Active	Not Active	Not Active	Not Active				
CO[C@H]1/C=C/O[C@@]2(C)Oc3c(C)c(O)c4c(O)c(c(/C=N/N5CCN(C)CC5)c(O)c4c3C2=O)NC(=O)/C(C)=C\C=C\[C@H](C)[C@H](O)[C@@H](C)[C@@H](O)[C@@H](C)[C@H](OC(C)=O)[C@@H]1C [RIFAMPIN]	Not Active	Not Active	Not Active	Not Active	Not Active	Not Active			Not Active	Not Active	Not Active	Not Active				
Cc1noc(NS(=O)(=O)c2ccc(N)cc2)c1C [SULFISOXAZOLE]	Not Active	Not Active	Not Active	Not Active	Not Active	Not Active	Not Active	Not Active	Not Active	Not Active	Not Active	Not Active				
NS(=O)(=O)c1cc2c(cc1Cl)NC(C(Cl)Cl)NS2(=O)=O (stereo unspecified) [TRICHLORMETHIAZIDE]	Not Active	Not Active	Not Active	Not Active	Not Active	Not Active	Not Active	Not Active	Not Active	Not Active	Not Active	Not Active				
COc1nc(C)nc(Cl)c1NC1=NCCN1 [MOXONIDINE]	Not Active	Not Active	Not Active	Not Active	Not Active	Not Active	Not Active	Not Active	Not Active	Not Active	Not Active	Not Active				
Nc1nc2ccc(OC(F)(F)F)cc2s1 [RILUZOLE]	Not Active	Not Active			Not Active	Not Active					Not Active	Not Active				
N[C@@H](Cc1cc(I)c(Oc2ccc(O)c(I)c2)c(I)c1)C(=O)O [LIOTHYRONINE]	Not Active	Not Active	Not Active	Not Active	Not Active	Not Active										
CSc1ccc(/C=C2/C(C)=C(CC(=O)O)c3cc(F)ccc32)cc1 [SULINDAC SULFIDE]	Not Active	Not Active	Not Active	Not Active		Not Active	Not Active	Not Active			Not Active	Not Active				
Nc1c2c(nc3ccccc13)CCCC2 [TACRINE]	Not Active	Not Active			Not Active	Not Active	Not Active	Not Active	Not Active	Not Active	Not Active	Not Active				
CN1CCN(CCCN2c3ccccc3Sc3ccc(Cl)cc32)CC1 [PROCHLORPERAZINE]	Not Active	Not Active			Not Active	Not Active	Not Active	Not Active								
CCOC(=O)N1CCC(=C2c3ccc(Cl)cc3CCc3cccnc32)CC1 [LORATADINE]	Not Active	Not Active			Not Active	Not Active					Not Active	Not Active				
CC[C@@H](CO)NC(=O)[C@@H]1C=C2c3cccc4[nH]cc(c34)C[C@H]2N(C)C1 [METHYLERGONOVINE]	Not Active	Not Active			Not Active	Not Active	Not Active	Not Active	Not Active	Not Active	Not Active	Not Active				
OCCN(CCO)c1nc(N2CCCCC2)c2nc(N(CCO)CCO)nc(N3CCCCC3)c2n1 [DIPYRIDAMOLE]	Not Active	Not Active	Not Active	Not Active	Not Active	Not Active							1.58			
Cn1ccnc1S [METHIMAZOLE]	Not Active	Not Active	Not Active	Not Active	Not Active	Not Active					Not Active	Not Active				
Cc1oncc1C(=O)Nc1ccc(C(F)(F)F)cc1 [LEFLUNOMIDE]	Not Active	Not Active	Not Active	Not Active	Not Active	Not Active	Not Active	Not Active			Not Active	Not Active				
CC/C(=C(\c1ccccc1)c1ccc(OCCN(C)C)cc1)c1ccccc1 [TAMOXIFEN]	Not Active					Not Active	Not Active	Not Active	Not Active	Not Active				7.7	5.78	4.39
